Common to all, as to assay type: biochemical
Assay [1] addresses PAK3 (Homo sapiens, UniProt O75914). As to the kind of experiment: In vitro PAK inhibition assay (SelectScreen, Ser/Thr 20 peptide). The method, boiled down:
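Fluorescence-based development format: after a 60-min room-temperature kinase reaction and 60-min protease development, percent phosphorylation of Ser/Thr 20 peptide calculated via phosphopeptide controls. Buffer 50 mM HEPES pH 7.5, 10 mM MgCl2, 1 mM EGTA, 0.01% BRIJ-35; compounds at 1% DMSO, 10-point 3-fold dilution series.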

Assay [2] has as its target PAK1 (Homo sapiens, UniProt Q13153). As to the kind of experiment: In vitro PAK inhibition assay (SelectScreen, Ser/Thr 19 peptide). The method, boiled down: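 Ten-point, 3-fold compound series at 1% final DMSO were incubated with enzyme, Ser/Thr 19 peptide and ATP for 60 min at room temperature. Buffer was HEPES pH 7.5 (50 mM) with 10 mM MgCl2, 1 mM EGTA, 0.01% BRIJ-35. A 60 min development step preceded the fluorescence read converted to % phosphorylation.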

For assay [3], the target named is PAK2 (PAK65) (Homo sapiens, UniProt Q13177). As to the kind of experiment: In vitro PAK inhibition assay (SelectScreen, Ser/Thr 20 peptide). The method, boiled down:
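Ten-point threefold compound dilutions (1% DMSO) were incubated with PAK2 (0.29-6 ng) and Ser/Thr 20 substrate (2 μM) for 60 min at room temperature in HEPES pH 7.5 buffer with MgCl2, EGTA and BRIJ-35.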

For assay [4], the target named is PAK4 (Homo sapiens, UniProt O96013). Described as above. The method, boiled down:
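Ten-point, 3-fold compound series (1% DMSO) incubated 1 h at room temperature with PAK4 (0.1-0.75 ng) and 2 μM Ser/Thr 20 peptide, HEPES pH 7.5 buffer with MgCl2, EGTA, BRIJ-35. Development reagent cleaves non-phosphorylated peptide; fluorescence emission ratio gives % phosphorylation, fitted sigmoidally for IC50.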

Structures are written as SMILES.

PAK1, sequence (Q13153 whole entry): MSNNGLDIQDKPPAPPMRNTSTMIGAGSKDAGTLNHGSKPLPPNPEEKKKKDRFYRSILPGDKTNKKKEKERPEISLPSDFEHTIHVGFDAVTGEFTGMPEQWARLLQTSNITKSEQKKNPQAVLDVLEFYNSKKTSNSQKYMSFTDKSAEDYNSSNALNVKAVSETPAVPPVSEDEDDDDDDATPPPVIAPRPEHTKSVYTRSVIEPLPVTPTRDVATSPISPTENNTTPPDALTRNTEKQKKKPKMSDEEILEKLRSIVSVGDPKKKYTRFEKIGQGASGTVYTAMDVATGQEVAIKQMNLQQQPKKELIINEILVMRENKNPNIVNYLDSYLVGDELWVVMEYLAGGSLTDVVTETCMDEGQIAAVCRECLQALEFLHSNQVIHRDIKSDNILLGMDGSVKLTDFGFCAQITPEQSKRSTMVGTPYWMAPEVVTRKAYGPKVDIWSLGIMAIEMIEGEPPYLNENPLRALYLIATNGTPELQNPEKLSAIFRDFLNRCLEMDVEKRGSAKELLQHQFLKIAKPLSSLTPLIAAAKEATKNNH
PAK2 (PAK65), sequence (Q13177 whole entry): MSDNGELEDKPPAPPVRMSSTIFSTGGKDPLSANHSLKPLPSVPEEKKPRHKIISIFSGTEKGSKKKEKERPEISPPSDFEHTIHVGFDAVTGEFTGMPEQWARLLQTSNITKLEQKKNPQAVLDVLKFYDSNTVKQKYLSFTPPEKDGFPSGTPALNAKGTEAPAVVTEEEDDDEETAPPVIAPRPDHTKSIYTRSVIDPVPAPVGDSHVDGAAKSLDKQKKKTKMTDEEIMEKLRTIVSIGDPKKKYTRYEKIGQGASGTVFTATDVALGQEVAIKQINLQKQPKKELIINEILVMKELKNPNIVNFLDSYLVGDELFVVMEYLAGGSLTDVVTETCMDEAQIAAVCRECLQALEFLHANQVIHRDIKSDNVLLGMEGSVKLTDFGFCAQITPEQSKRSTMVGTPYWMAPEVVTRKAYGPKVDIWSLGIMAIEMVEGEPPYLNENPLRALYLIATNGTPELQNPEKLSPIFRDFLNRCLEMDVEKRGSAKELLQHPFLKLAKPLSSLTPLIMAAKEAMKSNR
PAK3, sequence (O75914 whole entry): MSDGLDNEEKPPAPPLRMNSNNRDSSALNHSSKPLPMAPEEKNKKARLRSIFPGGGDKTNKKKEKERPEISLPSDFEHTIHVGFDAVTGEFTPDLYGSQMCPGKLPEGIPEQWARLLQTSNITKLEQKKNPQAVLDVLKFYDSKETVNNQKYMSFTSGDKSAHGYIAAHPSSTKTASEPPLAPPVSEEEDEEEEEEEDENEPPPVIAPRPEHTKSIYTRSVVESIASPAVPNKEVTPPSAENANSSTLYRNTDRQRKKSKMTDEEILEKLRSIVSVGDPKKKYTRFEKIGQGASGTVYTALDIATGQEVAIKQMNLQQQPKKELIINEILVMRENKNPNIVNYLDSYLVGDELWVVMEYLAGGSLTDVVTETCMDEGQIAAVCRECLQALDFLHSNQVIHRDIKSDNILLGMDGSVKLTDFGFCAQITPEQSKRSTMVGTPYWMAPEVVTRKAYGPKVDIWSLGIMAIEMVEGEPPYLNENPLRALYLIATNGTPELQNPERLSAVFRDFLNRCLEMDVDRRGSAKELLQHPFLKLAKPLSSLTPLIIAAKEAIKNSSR
PAK4, sequence (O96013 whole entry): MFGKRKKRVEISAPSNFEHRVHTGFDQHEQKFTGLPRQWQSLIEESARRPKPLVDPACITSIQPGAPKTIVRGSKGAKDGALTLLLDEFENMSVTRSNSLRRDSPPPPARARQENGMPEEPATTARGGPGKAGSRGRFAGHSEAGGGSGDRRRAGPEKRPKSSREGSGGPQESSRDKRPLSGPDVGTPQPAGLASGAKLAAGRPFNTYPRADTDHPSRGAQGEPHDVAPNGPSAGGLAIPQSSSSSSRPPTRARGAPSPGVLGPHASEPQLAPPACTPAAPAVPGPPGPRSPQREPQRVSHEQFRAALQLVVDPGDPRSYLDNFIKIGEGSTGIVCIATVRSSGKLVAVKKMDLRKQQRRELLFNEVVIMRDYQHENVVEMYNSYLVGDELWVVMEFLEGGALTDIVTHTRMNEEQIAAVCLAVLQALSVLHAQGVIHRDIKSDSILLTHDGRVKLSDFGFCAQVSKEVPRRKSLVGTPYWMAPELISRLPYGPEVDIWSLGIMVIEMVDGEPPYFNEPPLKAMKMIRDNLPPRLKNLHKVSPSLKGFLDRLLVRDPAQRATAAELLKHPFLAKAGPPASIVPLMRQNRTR

Take `CCn1c(=O)c(-c2ccc(-c3cccc4ncccc34)cc2Cl)cc2cnc(Nc3ccc(N4CCN(C)CC4)cc3)nc21`: the IC50 (usually the midpoint of a concentration-inhibition curve) is 50 to 500 nM in assay [1], 50 to 500 nM in assay [2], 50 to 500 nM in assay [3] and at least 5000 nM in assay [4].

As for `CCn1c(=O)c(-c2ccc(-c3ccnn3C)cc2)cc2cnc(Nc3ccc(N4CCN(C)CC4)cc3)nc21`, the IC50 is 500 to 5000 nM in assay [1], 50 to 500 nM in assay [2], 500 to 5000 nM in assay [3] and at least 5000 nM in assay [4].

Consider `CCn1c(=O)c(-c2ccc(-c3ncncc3F)cc2Cl)cc2cnc(Nc3ccc(C4CCN(C)CC4)cc3)nc21`, for which the IC50 in assay [1] was under 50 nM; in assay [2] it was under 50 nM; in assay [3], under 50 nM; in assay [4], 500 to 5000 nM.

In the case of `CCn1c(=O)c(-c2ccc(-c3ccnc(C(F)(F)F)n3)cc2Cl)cc2cnc(Nc3ccc(C4CCN(C)CC4)cc3)nc21`, the IC50 is 50 to 500 nM in assay [1], under 50 nM in assay [2], under 50 nM in assay [3] and at least 5000 nM in assay [4].

Regarding `CCn1c(=O)c(-c2ccc(-c3noc(C)n3)nc2)cc2cnc(Nc3ccc(C4CCN(C)CC4)cc3)nc21`, the IC50 was 500 to 5000 nM in assay [1], 500 to 5000 nM in assay [2], 500 to 5000 nM in assay [3] and at least 5000 nM in assay [4].

In the case of `CCn1c(=O)c(-c2ccc(-c3cccnc3C)cn2)cc2cnc(Nc3ccc(C4CCN(C)CC4)cc3)nc21`, the IC50 in assay [1] is over 5000 nM; in assay [2], over 5000 nM; in assay [3], over 5000 nM; in assay [4] it was at least 5000 nM.

As to `Cc1ncc(-c2cc(Cl)c(-c3cc4cnc(Nc5ccc(C6CCN(C)CC6)cc5)nc4n(C)c3=O)cc2F)s1`, the IC50 in assay [1] is under 50 nM; in assay [2], under 50 nM; in assay [3] it was under 50 nM; in assay [4], at least 5000 nM.

Consider `Cc1nc(-c2cc(Cl)c(-c3cc4cnc(Nc5ccc(C6CCN(C)CC6)cc5)nc4n(C)c3=O)cc2F)no1`, for which the IC50 in assay [1] was under 50 nM; in assay [2], under 50 nM; in assay [3], under 50 nM; in assay [4], at least 5000 nM.

`CCn1c(=O)c(-c2ccc(-c3cnc(C)s3)cn2)cc2cnc(Nc3ccc(C4CCN(C)CC4)cc3)nc21`: the half-inhibitory concentration (IC50) in assay [1] was over 5000 nM; in assay [2], 500 to 5000 nM; in assay [3], over 5000 nM; in assay [4], at least 5000 nM.

For `CCn1c(=O)c(-c2ccc(-c3cnc(C)s3)nc2)cc2cnc(Nc3ccc(C4CCN(C)CC4)cc3)nc21`, the IC50 in assay [1] is 500 to 5000 nM; in assay [2] it was 500 to 5000 nM; in assay [3] it was 500 to 5000 nM; in assay [4], at least 5000 nM.

As to `CN1CCC(c2ccc(Nc3ncc4cc(-c5cc(-c6cccnc6)ccc5Cl)c(=O)n(C)c4n3)cc2)CC1`, the IC50 in assay [1] is 500 to 5000 nM; in assay [2], 50 to 500 nM; in assay [3] it was 500 to 5000 nM; in assay [4], at least 5000 nM.

As to `CN(C)CCc1ccc(Nc2ncc3cc(-c4ccc(-c5cccnc5N(C)C)cc4Cl)c(=O)n(C)c3n2)cc1`, the IC50 in assay [1] was 500 to 5000 nM; in assay [2], 50 to 500 nM; in assay [3], 500 to 5000 nM; in assay [4] it was at least 5000 nM.

`CCc1cc(-c2ccc(-c3cc4cnc(Nc5ccc(C6CCN(C)CC6)cc5)nc4n(CC)c3=O)c(Cl)c2)ncn1`: the IC50 in assay [1] is 50 to 500 nM; in assay [2], under 50 nM; in assay [3] it was under 50 nM; in assay [4] it was at least 5000 nM.

As to `CCn1c(=O)c(-c2ccc(-c3noc(C)n3)cn2)cc2cnc(Nc3ccc(C4CCN(C)CC4)cc3)nc21`, the IC50 is over 5000 nM in assay [1], 500 to 5000 nM in assay [2], over 5000 nM in assay [3] and at least 5000 nM in assay [4].

As to `Cc1nccnc1-c1ccc(-c2cc3cnc(Nc4ccc(C5CCN(C)CC5)cc4)nc3n(C)c2=O)c(Cl)c1`, the IC50 is under 50 nM in assay [1], under 50 nM in assay [2], under 50 nM in assay [3] and at least 5000 nM in assay [4].

For the molecule `CCn1c(=O)c(-c2cc(C)c(-c3cccnc3)cc2Cl)cc2cnc(Nc3ccc(C4CCN(C)CC4)cc3)nc21`, the IC50 in assay [1] was under 50 nM; in assay [2], under 50 nM; in assay [3], under 50 nM; in assay [4], 50 to 500 nM.

Source of the values: US20140163026A1, “8-ETHYL-6-(ARYL)PYRIDO[2,3-D]PYRIMIDIN-7(8H)-ONES FOR THE TREATMENT OF NERVOUS SYSTEM DISORDERS AND CANCER” (Afraxis Holdings, Inc., priority 2011, published 2014).
